Molecules are shown by their SMILES. Like-named read-outs stand apart in the source and are kept apart here.

In one data set the target is human plasma Vanin-1 (Homo sapiens (Human), UniProt O95497). Description: Human plasma Vanin-1 enzyme activity inhibition assay. The class given is biochemical. The conditions noted are these: 100-fold diluted human plasma, substrate 25 μM, reading at 30th minute; read-out: hPlasma IC50.
The target of a further data set is CYP 1A2 (Homo sapiens (Human), UniProt P05177). Description: CYP enzyme inhibitory activity IC50 assay (cocktail method), 1A2. It is filed as in vitro ADME. The conditions noted are these: microsomes 0.1 mg/mL, probe Phenacetin. The source says: (§1) […]. […] […].
Sequence of CYP 1A2 (P05177 whole entry): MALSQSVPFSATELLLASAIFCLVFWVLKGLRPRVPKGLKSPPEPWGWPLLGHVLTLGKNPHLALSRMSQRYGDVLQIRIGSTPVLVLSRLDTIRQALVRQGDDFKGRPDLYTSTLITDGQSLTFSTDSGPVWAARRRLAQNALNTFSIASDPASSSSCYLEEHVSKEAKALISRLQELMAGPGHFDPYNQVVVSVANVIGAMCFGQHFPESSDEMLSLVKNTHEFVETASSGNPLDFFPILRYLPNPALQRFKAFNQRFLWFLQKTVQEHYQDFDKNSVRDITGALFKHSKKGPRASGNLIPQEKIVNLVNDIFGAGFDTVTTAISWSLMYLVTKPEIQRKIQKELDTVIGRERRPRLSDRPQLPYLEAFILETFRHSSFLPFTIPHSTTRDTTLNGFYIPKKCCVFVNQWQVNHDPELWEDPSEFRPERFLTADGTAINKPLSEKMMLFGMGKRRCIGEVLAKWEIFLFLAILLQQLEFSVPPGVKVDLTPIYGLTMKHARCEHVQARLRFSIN
Another data set deals with CYP 2C9 (Homo sapiens (Human), UniProt P11712). Description: CYP enzyme inhibitory activity IC50 assay (cocktail method), 2C9. It is filed as in vitro ADME. Particulars: microsomes 0.1 mg/mL, probe Diclofenac.
Sequence of CYP 2C9 (P11712 whole entry): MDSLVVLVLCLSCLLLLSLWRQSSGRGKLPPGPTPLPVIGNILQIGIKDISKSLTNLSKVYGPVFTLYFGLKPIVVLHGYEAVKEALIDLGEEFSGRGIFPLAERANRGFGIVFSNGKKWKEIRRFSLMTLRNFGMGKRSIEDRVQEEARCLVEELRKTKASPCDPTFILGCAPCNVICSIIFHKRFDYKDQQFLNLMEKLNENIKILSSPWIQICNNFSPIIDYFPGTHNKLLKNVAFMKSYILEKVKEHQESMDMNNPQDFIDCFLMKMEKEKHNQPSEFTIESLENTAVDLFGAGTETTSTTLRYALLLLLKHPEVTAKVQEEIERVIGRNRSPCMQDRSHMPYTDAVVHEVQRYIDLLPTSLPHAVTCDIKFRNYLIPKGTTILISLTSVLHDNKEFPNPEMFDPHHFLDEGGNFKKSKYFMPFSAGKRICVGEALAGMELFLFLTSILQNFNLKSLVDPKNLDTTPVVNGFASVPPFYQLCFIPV
Source text: as §1

For another data set, the target named is CYP 2C19 (Homo sapiens (Human), UniProt P33261). Description: CYP enzyme inhibitory activity IC50 assay (cocktail method), 2C19. The class given is in vitro ADME. Particulars: microsomes 0.1 mg/mL, probe Mephenytoin.
Sequence of CYP 2C19 (P33261 whole entry): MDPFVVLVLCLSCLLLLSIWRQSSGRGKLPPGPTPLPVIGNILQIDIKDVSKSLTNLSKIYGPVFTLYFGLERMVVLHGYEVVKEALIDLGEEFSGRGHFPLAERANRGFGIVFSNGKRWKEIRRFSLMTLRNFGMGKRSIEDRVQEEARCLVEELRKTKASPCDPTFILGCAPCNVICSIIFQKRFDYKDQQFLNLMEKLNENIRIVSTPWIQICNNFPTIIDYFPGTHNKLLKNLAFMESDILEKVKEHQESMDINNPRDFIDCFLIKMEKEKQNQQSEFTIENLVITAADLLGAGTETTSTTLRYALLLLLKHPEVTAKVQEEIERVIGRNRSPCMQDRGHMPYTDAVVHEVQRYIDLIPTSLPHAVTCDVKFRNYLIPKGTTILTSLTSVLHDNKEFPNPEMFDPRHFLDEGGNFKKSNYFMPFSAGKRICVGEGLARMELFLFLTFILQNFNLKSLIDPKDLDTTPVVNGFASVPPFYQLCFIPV
Source text: as §1

In another data set the target is CYP 2D6 (Homo sapiens (Human), UniProt P10635). The data set can be described thus: CYP enzyme inhibitory activity IC50 assay (cocktail method), 2D6. It is filed as in vitro ADME. The conditions noted are these: microsomes 0.1 mg/mL, probe Dextromethorphan.
Sequence of CYP 2D6 (P10635 whole entry): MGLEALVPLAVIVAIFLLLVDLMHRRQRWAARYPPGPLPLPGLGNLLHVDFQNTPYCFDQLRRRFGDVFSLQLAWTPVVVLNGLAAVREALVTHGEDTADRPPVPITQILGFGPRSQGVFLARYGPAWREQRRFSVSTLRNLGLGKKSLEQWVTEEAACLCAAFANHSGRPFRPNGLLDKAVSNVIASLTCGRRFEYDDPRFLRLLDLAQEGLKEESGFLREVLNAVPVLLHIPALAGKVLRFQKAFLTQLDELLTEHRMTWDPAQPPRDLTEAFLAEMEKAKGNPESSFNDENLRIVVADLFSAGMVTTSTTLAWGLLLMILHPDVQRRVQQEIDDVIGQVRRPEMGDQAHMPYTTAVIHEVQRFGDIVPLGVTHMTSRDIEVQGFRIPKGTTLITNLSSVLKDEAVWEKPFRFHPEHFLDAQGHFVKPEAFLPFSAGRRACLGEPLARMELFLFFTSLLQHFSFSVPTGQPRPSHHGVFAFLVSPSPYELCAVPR
Source text: as §1

Data set [1] is described as follows: In vitro liver microsome stability assay, human. It is filed as in vitro ADME. The conditions noted are these: liver microsomes, read-out: T1/2 Human. On the procedure: (§2) PBS Buffer was 50 mM K2HPO4 buffer.
The nature of data set [2]: In vitro liver microsome stability assay, mouse. The class given is in vitro ADME. The conditions noted are these: liver microsomes, read-out: T1/2 Mouse. On the procedure:
as §2

Data set [3] in a line: In vitro liver microsome stability assay, rat. The conditions noted are these: liver microsomes, read-out: T1/2 Rat. The class given is in vitro ADME. As for the experimental part:
as §2

A short description of data set [4]: In vivo pharmacokinetic evaluation in mice. The conditions noted are these: for AUC(0-t): read-out: Area under the curve AUC0-7 h; for half-life: read-out: Half-life T1/2 (converted); for Cmax: read-out: Peak concentration Cmax. More on the design: clearance: unit not given here. The source says: The vehicle used in the experiment was: DMSO: Solutol: PBS=5%:25%:70% (v/v/v). Preparation method: The required compound was weighed accurately, added with a certain volume of DMSO in a certain proportion, vortex-mixed until completely dissolved, then added successively with Solutol and PBS according to the above proportion, and mixed well. The vehicles used in the intravenous (iv) administration group and oral (po) administration group were the same vehicles in the experiment. The intravenous dose was 2 mpk and the oral dose was 5 mpk. Experimental blood collection time points: IV group: 0.083, 0.25, 0.5, 1, 2, 4, 7, 24 h. PO group: 200 μL of whole blood was collected from jugular vein at each time point of 0.25, 0.5, 1, 2, 4, 7 and 24 h, anticoagulated with EDTA-K2, and immediately centrifuged at 4000 rpm for 5 minutes at 4° C. The supernatant was taken and the samples were frozen and stored in a refrigerator at −80° C. Processing of plasma samples: the sample was precipitated with ACN/MeOH (1:1, v/v) precipitant containing internal standard, then centrifuged at 14000 rpm for 5 minutes. The supernatant was taken into LC-MS/MS (AB Triple Quard 5500) for analysis to obtain plasma concentrations, and parameters were calculated by the non-compartmental model of Winnolin 8.1 version.

For a further data set, the system named is CYP enzymes. Description: CYP enzyme inhibition, overall statement on tested CYP enzymes. The class given is in vitro ADME. Particulars: 1A2, 2C9, 2C19, 2D6, 3A4; result in words.
Source text: as §1

A short description of data set [5]: In vitro liver microsome stability, overall statement. The class given is in vitro ADME. Particulars: human, mouse, rat liver microsomes; result in words. As for the experimental part: as §2
The next data set has as its target CYP3A4 (Homo sapiens, UniProt P08684). Description: in vitro. The conditions noted are these: microsomes.
Setting [6] is: mouse, plasma, 2 mg/kg, intravenous injection, 2 mpk.
Where [7] appears, read: mouse, plasma, po, 5 mg/kg, intragastric administration, 5 mpk.

Sequence of human plasma Vanin-1 (O95497 22-513): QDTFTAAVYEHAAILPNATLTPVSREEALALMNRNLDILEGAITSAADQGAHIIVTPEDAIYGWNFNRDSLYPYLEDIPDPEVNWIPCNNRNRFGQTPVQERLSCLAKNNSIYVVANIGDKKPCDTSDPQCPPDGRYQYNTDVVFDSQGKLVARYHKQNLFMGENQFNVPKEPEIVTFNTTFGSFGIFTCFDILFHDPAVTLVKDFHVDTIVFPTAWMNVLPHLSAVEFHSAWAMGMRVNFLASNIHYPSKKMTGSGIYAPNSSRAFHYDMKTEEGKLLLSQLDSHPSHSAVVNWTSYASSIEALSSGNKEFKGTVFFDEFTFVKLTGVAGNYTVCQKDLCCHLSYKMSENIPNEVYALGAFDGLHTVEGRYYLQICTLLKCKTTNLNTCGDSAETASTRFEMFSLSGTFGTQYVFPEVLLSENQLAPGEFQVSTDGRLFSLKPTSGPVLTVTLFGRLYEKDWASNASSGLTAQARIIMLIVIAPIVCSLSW
Sequence of CYP3A4 (P08684 2-503 limits assumed): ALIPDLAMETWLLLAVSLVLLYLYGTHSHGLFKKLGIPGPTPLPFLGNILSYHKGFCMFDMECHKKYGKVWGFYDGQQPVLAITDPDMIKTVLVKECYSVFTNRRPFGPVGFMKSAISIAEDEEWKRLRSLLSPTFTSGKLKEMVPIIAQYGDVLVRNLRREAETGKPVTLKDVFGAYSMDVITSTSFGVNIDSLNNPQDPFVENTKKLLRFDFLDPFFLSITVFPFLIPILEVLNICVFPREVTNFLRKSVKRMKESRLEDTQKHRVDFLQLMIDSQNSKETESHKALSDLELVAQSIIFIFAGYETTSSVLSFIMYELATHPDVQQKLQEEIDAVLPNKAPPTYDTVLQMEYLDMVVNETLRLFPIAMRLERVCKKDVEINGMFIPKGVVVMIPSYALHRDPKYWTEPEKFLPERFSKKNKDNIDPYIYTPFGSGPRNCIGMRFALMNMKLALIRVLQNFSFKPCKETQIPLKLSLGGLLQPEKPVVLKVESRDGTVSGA

Turning to `CC(Nc1ncc(C(=O)N2CCC3(CCOCC3)C2)cn1)c1ccccc1` (stereo not shown) [Compound 6], the IC50 on human plasma Vanin-1 was 0.0016 µM.
On the same count and under the same terms, the same measure for `O=C(c1cnc(NCc2ccc(F)cc2F)nc1)N1CCC2(CCOCC2)C1` [Compound 12]: 0.0079 µM.
For `CC(=O)N(C)[C@H]1CCN(C(=O)c2cnc(N[C@H](C)c3ccc(C(F)(F)F)cc3F)nc2)C1` [Compound 41-P2], the IC50 is greater than 50 µM at CYP 1A2, 45.6 µM against CYP 2C9, greater than 50 µM against CYP 2C19 and greater than 50 µM against CYP 2D6. Besides, the half-life at 1 μM in data set [1] was greater than 4.66 h; in data set [2], 1.65 h; in [3], 3.31 h. For the same molecule, the “Area under the curve AUC0-7 h” value in data set [4] (intragastric administration, 5 mpk) came out at 10656.5 ng·h/mL. Also, the values for the AUC(0-t) in data set [4] (setting [6]) and in data set [4] (setting [7]) were 4960 ng·h/mL and 10700 ng·h/mL, respectively. Also, the clearance in data set [4] (mouse, plasma, 2 mg/kg, intravenous injection, 2 mpk, read-out: Clearance rate CL (converted)) is 0.112. Moreover, in data set [4] (mouse, plasma, 2 mg/kg, intravenous injection, 2 mpk, read-out: Distributed solvent Vd), the Vd stood at 1.26 L/kg. Further, the half-life in data set [4] (setting [6]) is 2.8 h; in data set [4] (setting [7]), 5.6 h. Besides, the Cmax in data set [4] (setting [6]) turned out to be 2140 ng/mL; in data set [4] (setting [7]), 1540 ng/mL. Besides, in data set [4] (mouse, plasma, oral, intragastric administration 5 mpk vs intravenous 2 mpk, read-out: Bioavailability F %), the bioavailability worked out at 86%. Further, the “inhibitory effect on the tested CYP enzymes” value in the data set on CYP enzymes was “basically no inhibitory effect”. The liver microsome stability result in data set [5] was “remarkable stability”. Besides, at CYP3A4, the concentration for half-maximal inhibition (IC50) at 10 min is greater than 50 µM.

Source of the values: patent US20240124479A1, “PYRIMIDINE CARBOXAMIDE COMPOUND AND USE THEREOF” (SHANGHAI MEIYUE BIOTECH DEVELOPMENT CO. LTD, priority 2020, published 2024).
